Earlier results in patent publication US20080003592A1, “Method for conducting pharmacogenomics-based studies” (priority 2003, published 2008).
Counter-ions that a name gives are not always drawn.

Key:
[1] = advanced colorectal cancer
[2] = depending on the regimen

SMILES	patients minimally improved (Alzheimer's patients receiving Cognex, controls about 33%)	patients showing no change or minimal worsening of their disease (patients receiving Cognex for Alzheimer's disease, controls about 68%)	patients much improved (patients receiving Cognex, controls about 1%)	patients with an objective response to the drug ([1]; standard therapy)	patients with a complete response (complete tumor disappearance) ([1]; of the patients with an objective response)	patients suffering serious gastrointestinal or hematopoietic toxicity [2]
Nc1c2c(nc3ccccc13)CCCC2 [Cognex, tacrine hydrochloride]	About 58%	about 45%	about 2%	–	–	–
O=c1[nH]cc(F)c(=O)[nH]1 [5-fluorouracil]	–	–	–	20-40%	1-5%	20-30%
